How the values were obtained:
Assay type in all cases: cell-based, human
TFF3 = TFF3 transcript levels (RT-PCR) in MCF7 cells treated with E2 or TAM; settings: 10 nM E2 or 1 μM TAM, 24 hours, FIG. 7A
Experimental: RT-PCR was performed in a final volume of […] containing 0.2 μg of mRNA template, 0.6 μM primers, […] of enzyme mix, 400 μM of each dNTP, 10 reaction buffer, and 10 Q-Solution by use of the Qiagen One-step RT-PCR kit. RNA template was reverse-transcribed into cDNA for 30 min at 50° C.; Hotstart TaqDNA polymerase was activated by heating for 15 min at 95° C.; the denatured cDNA templates were amplified by the following cycles: 94° C./30 s, 55° C./30 s, and 72° C./60 s. A final extension was performed for 10 min at 72° C. In order to compare the PCR products semiquantitatively, 15-40 cycles of PCR (annealing temperature 55° C.) were performed to determine the linearity of the PCR amplification, and the amplified β-actin cDNA served as an internal control for cDNA quantity and quality. All RNA samples were treated with DNase I to avoid genomic DNA contaminations.
(§1) It was of interest to determine if the expression of TFF3 is related to estrogen receptor status. MCF7 cells were cultured in phenol red free RPMI 1640 containing 10% dextran coated charcoal stripped fetal bovine serum in a 6 well plate for 24 hours. Then the cells were changed to treatment media containing 10 nM E2 or 1 μM TAM and cultured for 24 hours in the same. Untreated cells cultured in serum free media acted as controls.

TFF3 promoter = TFF3 promoter activity in MCF-7 cells treated with E2 or TAM; settings: 24 hours treatment, FIG. 7B, p<0.05
Experimental: as §1

TFF1 = TFF1 transcript levels (RT-PCR) in MCF7 cells treated with E2 or tamoxifen; settings: 10 nM E2 or 1 μM TAM, 24 hours, FIG. 9A
Experimental: as §1, with “MCF7 cells produce endogenous levels” for “It was”, “TFF1.” for “interest to determine if the expression of TFF3 is related to estrogen receptor status.”

TFF1 promoter = TFF1 promoter activity in MCF7 cells treated with E2 or TAM; settings: 24 hours treatment, FIG. 9B
Experimental: as §1, with “MCF7 cells produce endogenous levels” for “It was”, “TFF1.” for “interest to determine if the expression of TFF3 is related to estrogen receptor status.”

[1] = tested on: MCF7-VECTOR and MCF7-TFF3 cells; experiment: Total cell number assay in estrogen-depleted media with estrogen supplement; settings: estrogen supplemented to estrogen-depleted media, FIG. 10A
Experimental: (§2) MCF7-VECTOR and MCF7-TFF3 cells were cultured in phenol red free RPMI 1640 media with 10% dextran coated charcoal stripped fetal bovine serum.

MCF-TFF3 cells = experiment: Soft agar colony formation in estrogen-depleted media with estrogen added; settings: estrogen added to estrogen-depleted media, MCF-TFF3, FIG. 10B
Experimental: as §2

MCF-7-TamR cells = experiment: Cell morphology assay, MCF-7-TamR cells; settings: single agent, 48 h, FIG. 19
Experimental: Tamoxifen resistant MCF-7-Tam^R cells were plated at a concentration of 5×10^3 cells/well in 96-well plates in 100 μl of phenol red free RPMI 1640 medium containing dextran coated charcoal stripped 10% FBS. The plates were incubated at 37° C. for 24 h to allow the cells to reattach and re-equilibrate. Without removing any medium, anti-TFF3 antibody and/or tamoxifen were then added at twice the final concentration in a volume of 100 μl of the culture media. After 48 h images of cells were taken at 10× magnification under phase contrast microscope (Olympus IX70).
Cells were plated in phenol red free RPMI 1640 medium containing dextran coated charcoal stripped 10% FBS at 5×10^3 cells/100 μl/well in 96-well plates. After 24 hours incubation, anti-TFF3 antibody and/or tamoxifen (TAM) were then added at twice the final concentration in a volume of 100 μl. The cells were then taken photos using Olympus phase contrast microscope under 10× magnification. CK-09 is the pre-immune sera for the rabbit polyclonal antibodies of human TFF3 (anti-09).

CEACAM6 gene = experiment: CEACAM6 luciferase reporter assay in MCF-7 cells; settings: MCF-7 co-transfected with expression plasmid, 36 hours post transfection

Compound | transcript levels of TFF3 (TFF3) | TFF3 promoter activity (TFF3 promoter) | transcript levels of TFF1 (TFF1) | TFF1 promoter activity (TFF1 promoter) | total cell number [1] | soft agar colony numbers (MCF-TFF3 cells) | cell morphology / cell death (MCF-7-TamR cells) | stimulation of CEACAM6 expression compared with control vector (CEACAM6 gene)
C[C@]12CC[C@@H]3c4ccc(O)cc4CC[C@H]3[C@@H]1CC[C@@H]2O [E2, estradiol] | very high increased transcript levels | increase | very significant increase | increase | brings back the total cell number to the control cells | further increases the colony numbers significantly | – | –
CC/C(=C(\c1ccccc1)c1ccc(OCCN(C)C)cc1)c1ccccc1 [TAM, tamoxifen] | significantly but not as high transcript levels | increase | very significant increase | increase | – | – | look healthy and similar to untreated control | –
TFF3: wild type human TFF3 expressed from plasmid in MCF-7 cells (EEYVGLSANQCAVPAKDRVDCGYPHVTPKECNNRGCCFDSRIPGVPWCFKPLQEAECTF) | – | – | – | – | – | – | – | two fold

Source: patent US20100129370A1, “Trefoil Factors and Methods of Treating Proliferation Disorders Using Same” (priority 2004, published 2010)
